Experiments:
[1] = test system: ovarian cancer cells (PA-1); assay: Cancer cell line growth inhibition (SRB assay); assay type: cell-based; conditions: PA-1 ovarian cancer cells, SRB assay; read-out: Cancer Cell Line GI50 Range PA-1
Experimental: Breast cancer cells (MDA-MB-231), colon cancer cells (HCT116) and ovarian cancer cells (PA-1) were seeded (1000 to 4000 in 80 μl per well depending on the cell growth rate) into 96 well plates 24 hours before compound overlay. Compounds were prepared as 10 mM stock solutions in 100% DMSO which were diluted with DMEM (Dulbecco's Modified Eagle's Medium) cell growth Medium (Invitrogen, Burlington, ON, Canada) containing 10% FBS (Fetal Bovine Serum) to concentrations ranging from 50 nM to 250 μM. Aliquots (20 μl) from each concentration were overlaid to 80 μl of the pre-seeded cells in the 96 well plates to make final concentrations of 10 nM to 50 μM. The cells were cultured for 5 days before the Sulforhodamine B assay (SRB) was performed to determine the compound's cell growth inhibition activity.
Sulforhodamine B (purchased from Sigma, Oakville, ON, Canada) is a water-soluble dye that binds to the basic amino acids of the cellular proteins. Thus, colorimetric measurement of the bound dye provides an estimate of the total protein mass that is related to the cell number. the cells are fixed in situ by gently aspirating off the culture media and adding 50 μl ice cold 10% Trichloroacetic Acid (TCA) per well and incubate at 4° C. for 30-60 min. The plates are washed with H2O five times and allowed to air dry for 5 min. Addition of 50 μl 0.4% (w/v) SRB solution in 1% (v/v) acetic acid to each well and incubation for 30 min at RT completes the staining reaction. Following staining, plates are washed four times with 1% acetic acid to remove unbound dye and then allowed to air dry for 5 min. The stain is solubilized with 100 μl of 10 mM Tris pH 10.5 per well. Absorbance is read at 570 nm.
The percentage (%) of relative growth inhibition was calculated by comparing to DMSO treated only cells (100%). GI50's were determined for compounds with cytotoxic activity. The GI50 was calculated using GraphPad PRISM software (GraphPad Software, Inc., San Diego, Calif., USA).

[2] = test system: colon cancer cells (HCT116); assay: Cancer cell line growth inhibition (SRB assay); assay type: cell-based; conditions: Homo sapiens, HCT-116; HCT116 colon cancer cells, SRB assay; read-out: Cancer Cell Line GI50 Range HCT116

| SMILES | GI50 [1] | GI50 [2] |
| --- | --- | --- |
| CCc1cccc(CC)c1NC(=O)Nc1ccc2[nH]nc(-c3ccc4c(c3)CN(C)CCO4)c2c1 [Example A114, 1-(2,6-diethylphenyl)-3-(3-(4-methyl-2,3,4,5-tetrahydrobenzo[f][1,4]oxazepin-7-yl)-1H-indazol-5-yl)urea] | > 0.5 µM | > 0.5 µM |
| COC1CCN(c2ccc(-c3n[nH]c4ccc(NC(=O)C(c5ccsc5)N5CCCC5)cc34)cc2)CC1 (stereo not shown) [Example A116, N-(3-(4-(4-methoxypiperidin-1-yl)phenyl)-1H-indazol-5-yl)-2-(pyrrolidin-1-yl)-2-(thiophen-3-yl)acetamide] | 0.1 to 0.5 µM | 0.1 to 0.5 µM |
| Cc1ccccc1C(NC(=O)c1ccc2[nH]nc(-c3ccc(N4CCOCC4)cc3)c2c1)C1CC1 (stereo not shown) [Example A119, N-(cyclopropyl(o-tolyl)methyl)-3-(4-morpholinophenyl)-1H-indazole-5-carboxamide] | 0.1 to 0.5 µM | 0.1 to 0.5 µM |
| O=C(Nc1ccc2[nH]nc(-c3ccc(N4CC(O)C4)cc3)c2c1)C(c1ccsc1)N1CCCC1 (stereo not shown) [Example A120, N-(3-(4-(3-Hydroxyazetidin-1-yl)phenyl)-1H-indazol-5-yl)-2-(pyrrolidin-1-yl)-2-(thiophen-3-yl)acetamide] | < 0.1 µM | < 0.1 µM |
| CN1CCC(Oc2ccc(-c3n[nH]c4ccc(C(=O)NC(c5ccsc5)C5CCC5)cc34)cc2)CC1 (stereo not shown) [Example A121, N-(cyclobutyl(thiophen-3-yl)methyl)-3-(4-((1-methylpiperidin-4-yl)oxy)phenyl)-1H-indazole-5-carboxamide] | < 0.1 µM | < 0.1 µM |
| O=C(NC(c1ccccc1)C1CC1)c1ccc2[nH]nc(-c3ccc(OC4CCN(CCF)CC4)cc3)c2c1 (stereo not shown) [Example A122, N-(cyclopropyl(phenyl)methyl)-3-(4-((1-(2-fluoroethyl)piperidin-4-yl)oxy)phenyl)-1H-indazole-5-carboxamide] | 0.1 to 0.5 µM | 0.1 to 0.5 µM |
| O=C(NC(c1ccsc1)C1CCC1)c1ccc2[nH]nc(-c3ccc(N4CCOCC4)cc3)c2c1 (stereo not shown) [Example A123, N-(cyclobutyl(thiophen-3-yl)methyl)-3-(4-morpholinophenyl)-1H-indazole-5-carboxamide] | < 0.1 µM | 0.1 to 0.5 µM |
| CCc1cccc(CC)c1NC(=O)Nc1ccc2[nH]nc(-c3ccc(C4CN(C)CCO4)cc3)c2c1 (stereo not shown) [Example A124, 1-(2,6-diethylphenyl)-3-(3-(4-(4-methylmorpholin-2-yl)phenyl)-1H-indazol-5-yl)urea] | 0.1 to 0.5 µM | 0.1 to 0.5 µM |
| CN1CCC(Oc2ccc(-c3n[nH]c4ccc(C(=O)N[C@@H](CCO)c5ccccc5)cc34)cc2)CC1 [Example A125, (S)-N-(3-hydroxy-1-phenylpropyl)-3-(4-((1-methylpiperidin-4-yl)oxy)phenyl)-1H-indazole-5-carboxyamide] | 0.1 to 0.5 µM | 0.1 to 0.5 µM |
| O=CN1CCC(Oc2ccc(-c3n[nH]c4ccc(C(=O)NC(c5ccccc5)C5CC5)cc34)cc2)CC1 (stereo not shown) [Example A126, N-(cyclopropyl(phenyl)methyl)-3-(4-((1-formylpiperidin-4-yl)oxy)phenyl)-1H-indazole-5-carboxamide] | 0.1 to 0.5 µM | 0.1 to 0.5 µM |
| CN1CCOC(c2ccc(-c3n[nH]c4ccc(C(=O)NC(c5ccccc5)C5CC5)cc34)cc2)C1 (stereo not shown) [Example A139, N-(cyclopropyl(phenyl)methyl)-3-(4-(4-methylmorpholin-2-yl)phenyl)-1H-indazole-5-carboxamide] | 0.1 to 0.5 µM | 0.1 to 0.5 µM |
| O=C(NC(c1ccccc1)C1CC1)c1ccc2[nH]nc(-c3ccc(OCCN4CCOCC4)cc3)c2c1 (stereo not shown) [Example A140, N-(cyclopropyl(phenyl)methyl)-3-(4-(2-morpholinoethoxy)phenyl)-1H-indazole-5-carboxamide] | 0.1 to 0.5 µM | 0.1 to 0.5 µM |
| Cc1ccccc1C(NC(=O)c1ccc2[nH]nc(-c3ccc(N4CC(O)C4)cc3)c2c1)C1CC1 (stereo not shown) [Example A141, N-(cyclopropyl(o-tolyl)methyl)-3-(4-(3-hydroxyazetidin-1-yl)phenyl)-1H-indazole-5-carboxamide] | 0.1 to 0.5 µM | 0.1 to 0.5 µM |
| CN1CCC(Oc2ccc(-c3n[nH]c4ccc(C(=O)NCc5ccccc5CO)cc34)cc2)CC1 [Example A142, N-(2-(hydroxymethyl)benzyl)-3-(4-((1-methylpiperidin-4-yl)oxy)phenyl)-1H-indazole-5-carboxamide] | > 0.5 µM | 0.1 to 0.5 µM |
| Cc1ccccc1C(NC(=O)c1ccc2[nH]nc(-c3ccc(OC4CCN(C)CC4)cc3)c2c1)C(C)C (stereo not shown) [Example A143, N-(2-methyl-1-(o-tolyl)propyl)-3-(4-((1-methylpiperidin-4-yl)oxy)phenyl)-1H-indazole-5-carboxamide] | 0.1 to 0.5 µM | 0.1 to 0.5 µM |
| CO[C@@H](C(=O)Nc1ccc2[nH]nc(-c3ccc(OCC4CCN(C)CC4)cc3)c2c1)c1ccccc1 [Example A145, (R)-2-methoxy-N-(3-(4-((1-methylpiperidin-4-yl)methoxy)phenyl)-1H-indazol-5-yl)-2-phenylacetamide] | 0.1 to 0.5 µM | 0.1 to 0.5 µM |
| CN1CCC(Oc2ccc(-c3n[nH]c4ccc(NC(=O)C5OCCc6ccccc65)cc34)cc2)CC1 (stereo not shown) [Example A146, N-(3-(4-(1-Methylpiperidin-4-yloxy)phenyl)-1H-indazol-5-yl)isochroman-1-carboxamide] | 0.1 to 0.5 µM | > 0.5 µM |
| CCC(NC(=O)c1ccc2[nH]nc(-c3ccc(OC4CCN(CCOC)CC4)cc3)c2c1)c1ccccc1 (stereo not shown) [Example A153, 3-(4-((1-(2-methoxyethyl)piperidin-4-yl)oxy)phenyl)-N-(1-phenylpropyl)-1H-indazole-5-carboxamide] | 0.1 to 0.5 µM | 0.1 to 0.5 µM |
| CN(C)C(=O)CN1CCC(Oc2ccc(-c3n[nH]c4ccc(C(=O)NC(c5ccccc5)C5CC5)cc34)cc2)CC1 (stereo not shown) [Example A158, N-(cyclopropyl(phenyl)methyl)-3-(4-((1-(2-(dimethylamino)-2-oxoethyl)piperidin-4-yl)oxy)phenyl)-1H-indazole-5-carboxamide] | 0.1 to 0.5 µM | 0.1 to 0.5 µM |
| COCCN1CCC(Oc2ccc(-c3n[nH]c4ccc(C(=O)NC(c5ccccc5)C5CCCC5)cc34)cc2)CC1 (stereo not shown) [Example A161, N-(cyclopentyl(phenyl)methyl)-3-(4-((1-(2-methoxyethyl)piperidin-4-yl)oxy)phenyl)-1H-indazole-5-carboxamide] | 0.1 to 0.5 µM | 0.1 to 0.5 µM |
| COCCN1CCC(Oc2ccc(-c3n[nH]c4ccc(C(=O)N[C@H](COC)c5ccccc5)cc34)cc2)CC1 [Example A164, (S)-N-(2-methoxy-1-phenylethyl)-3-(4-((1-(2-methoxyethyl)piperidin-4-yl)oxy)phenyl)-1H-indazole-5-carboxamide] | 0.1 to 0.5 µM | 0.1 to 0.5 µM |
| CC[C@@H](NC(=O)c1ccc2[nH]nc(-c3ccc(OC4CCN(C5COC5)CC4)cc3)c2c1)c1ccccc1Cl [Example A192, (R)-N-(1-(2-chlorophenyl)propyl)-3-(4-((1-(oxetan-3-yl)piperidin-4-yl)oxy)phenyl)-1H-indazole-5-carboxamide] | 0.1 to 0.5 µM | 0.1 to 0.5 µM |
| COc1cc(-c2n[nH]c3ccc(C(=O)NC(c4ccccc4)C4CC4)cc23)ccc1OC1CCN(C2COC2)CC1 (stereo not shown) [Example A194, N-(cyclopropyl(phenyl)methyl)-3-(3-methoxy-4-((1-(oxetan-3-yl)piperidin-4-yl)oxy)phenyl)-1H-indazole-5-carboxamide] | 0.1 to 0.5 µM | 0.1 to 0.5 µM |

Source: patent publication US9580390B2, “Indazole compounds as kinase inhibitors and method of treating cancer with same” (University Health Network, priority 2011, dated 2017)
